{"source": "paper PMC7029851", "about": "“Antibacterial activity of novel dual bacterial DNA type II topoisomerase inhibitors” (PLoS ONE, 2020)", "key": {"[1]": {"tested_on": "S. aureus clinical isolates (n = 10)", "assay": "microbe, parasite or virus in culture", "format": "cell-based, Staphylococcus aureus", "procedure": "(§1) The bacterial reference strains used in this study were purchased from ATCC (American Type Culture Collection) via LGC Standards (Middlesex, UK). […] Clinical MDR isolates were provided by Aptuit, the IHMA Europa Sàrl repository (Epalinges, Switzerland) and the Statens Serum Institute (Copenhagen, Denmark).\n(§2) MICs were determined by the broth microdilution method (the agar dilution method was used only for N. gonorrhoeae) according to CLSI guidelines.\n(§3) The results obtained using clinical isolates are reported as MIC50 and MIC90 values."}, "[2]": {"tested_on": "C. difficile clinical isolates (n = 21)", "assay": "MIC, multidrug-resistant clinical isolates", "format": "cell-based, Clostridium difficile", "conditions": "Clostridioides difficile; for MIC: read-out: MIC range", "procedure": "as §1, §2, §3"}, "[3]": {"tested_on": "E. faecalis clinical isolates (n = 12) vanA (6)/vanB (6)", "assay": "MIC, multidrug-resistant clinical isolates", "format": "cell-based", "procedure": "as §1, §2, §3"}, "[4]": {"tested_on": "E. faecium clinical isolates (n = 12) vanA (6)/vanB (6)", "assay": "MIC, multidrug-resistant clinical isolates", "format": "cell-based", "conditions": "for MIC: read-out: MIC range", "procedure": "as §1, §2, §3"}, "[5]": {"tested_on": "E. coli clinical isolates (n = 36)", "assay": "MIC, multidrug-resistant clinical isolates", "format": "cell-based, Escherichia coli", "conditions": "E. coli MDR clinical isolates (n = 36); for MIC50 / MIC90: Escherichia coli; for MIC50: read-out: MIC50; for MIC90: read-out: MIC90", "procedure": "as §1, §2, §3"}, "[6]": {"tested_on": "E. coli ATCC 25922", "assay": "Minimal bactericidal concentration", "format": "cell-based, Escherichia coli", "conditions": "Escherichia coli, ATCC25922, ≥99.9% reduction of inoculum", "procedure": "(§4) Minimal bactericidal concentrations (MBCs) were determined according to the procedure described by Knapp. Viable counts were performed after plates were incubated at 37°C for 24 hours. The MBC was defined as the lowest concentration that reduced the viability of the initial bacterial inoculum by ≥99.9%."}, "[7]": {"tested_on": "S. aureus ATCC 29213", "assay": "Minimal bactericidal concentration", "format": "cell-based, Staphylococcus aureus", "conditions": "Staphylococcus aureus, ATCC29213, ≥99.9% reduction of inoculum", "procedure": "as §4"}, "[8]": {"tested_on": "S. aureus BAA-1720", "assay": "Minimal bactericidal concentration", "format": "cell-based, Staphylococcus aureus", "conditions": "Staphylococcus aureus, BAA1720, ≥99.9% reduction of inoculum", "procedure": "as §4"}, "[9]": {"tested_on": "S. aureus ATCC BAA-1720", "assay": "Time-kill assay", "format": "cell-based, Staphylococcus aureus", "conditions": "1× to 4× MIC, over 24 hours", "procedure": "Time-kill experiments were performed according to the procedure reported by Knapp. […] A drug-free control was included in each experiment. The bacterial cultures were standardized to obtain an initial inoculum that ranged from 5×10^5 to 5×10^6 CFU/ml. The cultures were incubated at 37°C in a shaking bath. At 0, 2, 4, 8 and 24-hour intervals, viable counts were performed by spotting (in triplicate) 10 μl aliquots of suitable dilutions of the cultures onto Mueller-Hinton agar (MHA, Oxoid, Basingstoke, UK) plates. After incubation at 37°C for 24 hours, the bactericidal activity, namely, the ability to reduce the initial inoculum by 3 log10 CFU/ml, was assessed for each tested concentration over time."}, "[10]": {"tested_on": "S. aureus ATCC 29213", "assay": "Post-antibiotic effect (PAE)", "format": "cell-based, Staphylococcus aureus", "procedure": "A drug-free control was included in each experiment. After being exposed to the drug for 1 hour, viable counts were conducted in triplicate by spotting aliquots (10 μl) of suitable dilutions onto MHA plates. The drugs were removed by diluting the bacterial cultures (1:1000) in Cation-Adjusted Mueller-Hinton Broth (CAMHB; Sigma-Aldrich). The diluted cultures were incubated in a shaking bath at 37°C. To monitor the ongoing suppression of bacterial growth over time (5 hours), aliquots from each broth culture were periodically collected, diluted and plated to perform subsequent viable counts (in triplicate)."}, "[11]": {"tested_on": "C. difficile ATCC 700057", "assay": "MIC, broth microdilution", "format": "cell-based, Clostridium difficile", "conditions": "Clostridioides difficile, ATCC700057", "procedure": "MICs were determined by the broth microdilution method (the agar dilution method was used only for N. gonorrhoeae) according to CLSI guidelines. […] The MIC values of antibiotics used in clinical practice were interpreted according to the susceptibility interpretive criteria reported in the appropriate CLSI Tables (M100-S25, CLSI, 2015)."}, "[12]": {"tested_on": "A. baumannii clinical isolates (n = 10)", "assay": "microbe, parasite or virus in culture", "format": "cell-based, Acinetobacter baumannii", "conditions": "Acinetobacter baumannii", "procedure": "as §1, §2, §3"}, "[13]": {"conditions": "E. faecalis clinical isolates (n = 12), vanA (6)/vanB (6)"}, "[14]": {"conditions": "E. faecium clinical isolates (n = 12), vanA (6)/vanB (6)"}}, "note": "Structures can show the parent of a compound that is named as a salt. Where two headings read alike, the source gives them in different places."}
{"compound": "CN[C@H](CC(C)C)C(=O)N[C@H]1C(=O)N[C@@H](CC(N)=O)C(=O)N[C@H]2C(=O)N[C@H]3C(=O)N[C@H](C(=O)N[C@H](C(=O)O)c4cc(O)cc(O)c4-c4cc3ccc4O)[C@H](O)c3ccc(c(Cl)c3)Oc3cc2cc(c3O[C@@H]2O[C@H](CO)[C@@H](O)[C@H](O)[C@H]2O[C@H]2C[C@](C)(N)[C@H](O)[C@H](C)O2)Oc2ccc(cc2Cl)[C@H]1O", "note": "[vancomycin, vancomycin hydrochloride, reference compound]", "values": [{"measurement": "MIC range", "setting": "[1]; S. aureus MDR clinical isolates (n = 10)", "value": "1 to 4", "unit": "µg/mL"}, {"measurement": "MIC50", "setting": "[1]; Staphylococcus aureus", "value": 1, "unit": "µg/mL"}, {"measurement": "MIC90", "setting": "[1]; Staphylococcus aureus", "value": 2, "unit": "µg/mL"}, {"measurement": "MIC50", "setting": "[2]", "value": 2, "unit": "µg/mL"}, {"measurement": "MIC90", "setting": "[2]", "value": 2, "unit": "µg/mL"}, {"measurement": "MIC", "setting": "[2]", "value": "1 to 2", "unit": "µg/mL"}, {"measurement": "MIC50", "setting": "[3]; Enterococcus faecalis", "value": "> 64", "unit": "µg/mL"}, {"measurement": "MIC90", "setting": "[3]; Enterococcus faecalis", "value": "> 64", "unit": "µg/mL"}, {"measurement": "MIC50", "setting": "[4]; Enterococcus faecium", "value": "> 64", "unit": "µg/mL"}, {"measurement": "MIC90", "setting": "[4]; Enterococcus faecium", "value": "> 64", "unit": "µg/mL"}, {"measurement": "MIC", "setting": "[4]; Enterococcus faecium", "value": "> 64", "unit": "µg/mL"}]}
{"compound": "C[C@H]1COc2c(N3CCN(C)CC3)c(F)cc3c(=O)c(C(=O)O)cn1c23", "note": "[levofloxacin]", "values": [{"measurement": "MIC range", "setting": "[5]", "value": "0.03 to 32", "unit": "µg/mL"}, {"measurement": "MIC50", "setting": "[5]", "value": 4, "unit": "µg/mL"}, {"measurement": "MIC90", "setting": "[5]", "value": 16, "unit": "µg/mL"}]}
{"compound": "O=C(O)c1cn(C2CC2)c2cc(N3CCNCC3)c(F)cc2c1=O", "note": "[ciprofloxacin, Ciprofloxacin hydrochloride, reference compound]", "values": [{"measurement": "MBC", "setting": "[6]", "value": 0.016, "unit": "µg/mL"}, {"measurement": "MBC", "setting": "[7]", "value": 1, "unit": "µg/mL"}, {"measurement": "MBC", "setting": "[8]", "value": 256, "unit": "µg/mL"}, {"measurement": "Bactericidal activity in time-kill (reduction of 3 log10 CFU/ml)", "setting": "[9]", "value": "no bactericidal effect"}, {"measurement": "PAE", "setting": "[10]; 1-hour exposure at 1× and 4× MIC", "value": 25, "unit": "min"}, {"measurement": "PAE", "setting": "[10]; 1-hour exposure at 16× MIC", "value": 35, "unit": "min"}]}
{"compound": "Cc1ncc([N+](=O)[O-])n1CCO", "note": "[metronidazole, reference compound]", "values": [{"measurement": "MIC", "setting": "[11]", "value": 0.25, "unit": "µg/mL"}, {"measurement": "MIC50", "setting": "[2]; C. difficile clinical isolates (n = 21), read-out: MIC50", "value": 0.5, "unit": "µg/mL"}, {"measurement": "MIC90", "setting": "[2]; C. difficile clinical isolates (n = 21), read-out: MIC90", "value": 1, "unit": "µg/mL"}, {"measurement": "MIC", "setting": "[2]; C. difficile clinical isolates (n = 21)", "value": "0.25 to 2", "unit": "µg/mL"}]}
{"compound": "C[C@@H](O)[C@H]1C(=O)N2C(C(=O)O)=C(S[C@@H]3CN[C@H](C(=O)N(C)C)C3)[C@H](C)[C@H]12", "note": "[meropenem, reference compound]", "values": [{"measurement": "MIC50", "setting": "[12]", "value": 8, "unit": "µg/mL"}, {"measurement": "MIC90", "setting": "[12]", "value": "≥ 8", "unit": "µg/mL"}]}
{"compound": "CCCCCCCCCC(=O)N[C@@H](Cc1c[nH]c2ccccc12)C(=O)N[C@H](CC(N)=O)C(=O)N[C@@H](CC(=O)O)C(=O)N[C@@H]1C(=O)NCC(=O)N[C@@H](CCCN)C(=O)N[C@@H](CC(=O)O)C(=O)N[C@H](C)C(=O)N[C@@H](CC(=O)O)C(=O)NCC(=O)N[C@H](CO)C(=O)N[C@@H]([C@H](C)CC(=O)O)C(=O)N[C@@H](CC(=O)c2ccccc2N)C(=O)O[C@@H]1C", "note": "[daptomycin, reference compound]", "values": [{"measurement": "MIC50", "setting": "[3]; Enterococcus faecalis", "value": 1, "unit": "µg/mL"}, {"measurement": "MIC90", "setting": "[3]; Enterococcus faecalis", "value": 1, "unit": "µg/mL"}, {"measurement": "MIC", "setting": "[3]; Enterococcus faecalis, read-out: MIC range", "value": "0.5 to 2", "unit": "µg/mL"}, {"measurement": "MIC50", "setting": "[4]; Enterococcus faecium", "value": 4, "unit": "µg/mL"}, {"measurement": "MIC90", "setting": "[4]; Enterococcus faecium", "value": 4, "unit": "µg/mL"}, {"measurement": "MIC", "setting": "[4]; Enterococcus faecium", "value": "2 to 4", "unit": "µg/mL"}]}
{"compound": "CN(C)[C@@H]1C(O)=C(C(N)=O)C(=O)[C@@]2(O)C(O)=C3C(=O)c4c(O)cccc4[C@@](C)(O)[C@H]3C[C@@H]12", "note": "[tetracycline, tetracycline hydrochloride]", "values": [{"measurement": "MIC50", "setting": "[5]", "value": 16, "unit": "µg/mL"}, {"measurement": "MIC90", "setting": "[5]", "value": "> 64", "unit": "µg/mL"}]}
{"compound": "teicoplanin [reference compound]", "values": [{"measurement": "MIC50", "setting": "[3]; [13]", "value": ">64", "unit": "µg/mL"}, {"measurement": "MIC90", "setting": "[3]; [13]", "value": ">64", "unit": "µg/mL"}, {"measurement": "MIC50", "setting": "[4]; [14]", "value": 1, "unit": "µg/mL"}, {"measurement": "MIC90", "setting": "[4]; [14]", "value": 64, "unit": "µg/mL"}]}
